These results are taken from patent US12643889B2, “Synthesis of novel EP4 antagonist and use in cancer and inflammation” (Wuhan Humanwell Innovative Drug Research And Development …, priority 2020, dated 2026).

The assay has as its system CT-26 murine colon cancer tumor model. Description: Anti-tumor effect in CT-26 murine colon cancer tumor model in combination with radiation therapy. The format is in vivo, mouse. As to conditions: 150 mg/kg intragastric once daily in combination with radiotherapy (3Gry, once on day 1); day 23; tumor weight. As to the method:
In this assay, the anti-tumor effects of the control compound and the compounds prepared in Examples 1 to 43, in combination with radiation therapy, were tested in a CT-26 murine colon cancer tumor model.
After one week of adaptive feeding of mice, CT-26 cells in a log phase were resuspended in PBS, 5×10^5 CT-26 cells were inoculated subcutaneously at the right flank at 100 μL per mouse, and tumor growth was observed regularly. When the tumor grew to an average volume of 60 to 80 mm^3, the mice carrying the tumor were randomly divided into 5 groups based on the tumor volume size, each group containing 10 mice of 10. These group were a group of Control compound (150 mg/kg) in combination with radiotherapy (3Gry), a group of Compound I-2 (150 mg/kg) in combination with radiotherapy, a group of Compound I-5 (150 mg/kg) in combination with radiotherapy, a group of radiotherapy (3Gry) alone, and a group of vehicle control. The mice were intragastrically administered with the corresponding compound once daily, for 23 days in total; radiation therapy was performed for one-time on the first day of the administration. Tumor volumes and mouse body weights were measured twice a week, and tumor weights were weighed at the end of the experiment. Efficacy evaluations were performed based on relative tumor inhibition (TGI), safety evaluations were performed based on changes in animal body weight and death. Tumor volume and relative tumor inhibition were calculated as follows:
Tumor volume (TV)=½×a×b^2, where a and b are the length and width of the tumor measurement, respectively.
Relative tumor inhibition rate TGI (%)=(TWc−TWt/TWc)×100%, where TWc is the mean tumor weight of the vehicle control group and TW is the mean tumor weight of the treatment group.

As for `C[C@H](NC(=O)c1c(C(F)F)nn(C)c1Oc1cccc(C(C)(F)F)c1)c1ccc(C(=O)O)cc1` [Compound I-5, (S)-4-(1-(5-(3-(1,1-difluoroethyl)phenoxy)-3-(difluoromethyl)-1-methyl-1H-pyrazole-4-carboxamido)ethyl)benzoic Acid], the “relative tumor inhibition rate TGI (%)” value turned out to be 79%.
